{"source": "ChEMBL document CHEMBL5321195", "about": "“Exploring the Effect of Halogenation in a Series of Potent and Selective A2B Adenosine Receptor Antagonists” (J Med Chem, 2023)", "key": {"[1]": {"assay": "Solubility of compound in 1:99 DMSO/PBS incubated for 4 hrs", "format": "physicochemical"}, "[2]": {"target": "T1, Cytochrome P450 3A4 (Homo sapiens, UniProt P08684)", "T1 sequence (P08684 whole entry)": "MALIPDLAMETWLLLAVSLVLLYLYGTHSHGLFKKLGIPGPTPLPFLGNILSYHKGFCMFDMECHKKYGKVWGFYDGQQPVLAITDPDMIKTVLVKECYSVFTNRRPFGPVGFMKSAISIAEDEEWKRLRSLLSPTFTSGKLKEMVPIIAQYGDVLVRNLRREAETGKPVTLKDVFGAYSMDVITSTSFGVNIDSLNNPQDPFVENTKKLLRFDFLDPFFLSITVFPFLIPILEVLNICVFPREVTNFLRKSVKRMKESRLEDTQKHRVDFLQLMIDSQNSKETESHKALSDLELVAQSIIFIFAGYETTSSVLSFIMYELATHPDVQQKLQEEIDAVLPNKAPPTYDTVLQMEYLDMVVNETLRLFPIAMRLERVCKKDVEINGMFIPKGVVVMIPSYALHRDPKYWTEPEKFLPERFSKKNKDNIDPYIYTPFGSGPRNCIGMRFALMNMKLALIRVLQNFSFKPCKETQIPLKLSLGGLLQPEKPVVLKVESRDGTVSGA", "assay": "Inhibition of CYP3A4 (unknown origin) using 7-BFC as substrate preincubated for 5 mins followed by substrate addition by fluorescence based assay", "format": "ADME"}, "[3]": {"target": "T2, Adenosine receptor A2b (Homo sapiens) (UniProt P29275)", "T2 sequence (whole entry)": "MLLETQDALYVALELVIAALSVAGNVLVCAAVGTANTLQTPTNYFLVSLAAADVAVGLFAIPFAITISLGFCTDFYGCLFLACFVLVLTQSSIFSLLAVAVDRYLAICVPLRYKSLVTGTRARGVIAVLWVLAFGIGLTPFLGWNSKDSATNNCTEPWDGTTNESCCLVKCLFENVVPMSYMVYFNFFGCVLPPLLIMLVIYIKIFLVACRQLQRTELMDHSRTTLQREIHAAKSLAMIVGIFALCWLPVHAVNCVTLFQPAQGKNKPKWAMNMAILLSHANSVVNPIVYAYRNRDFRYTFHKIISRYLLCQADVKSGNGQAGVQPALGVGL", "assay": "Antagonist activity against N-terminal pRK5/SNAP-tagged human A2BAR transfected in HEK293T cells assessed as reduction in NECA-induced change in cellular impedence by measuring AUC measured for 45 mins", "format": "functional, cell-based", "details": "filed as antagonist"}, "[4]": {"target": "T3, Adenosine receptor A3 (Homo sapiens) (UniProt P0DMS8)", "T3 sequence (whole entry)": "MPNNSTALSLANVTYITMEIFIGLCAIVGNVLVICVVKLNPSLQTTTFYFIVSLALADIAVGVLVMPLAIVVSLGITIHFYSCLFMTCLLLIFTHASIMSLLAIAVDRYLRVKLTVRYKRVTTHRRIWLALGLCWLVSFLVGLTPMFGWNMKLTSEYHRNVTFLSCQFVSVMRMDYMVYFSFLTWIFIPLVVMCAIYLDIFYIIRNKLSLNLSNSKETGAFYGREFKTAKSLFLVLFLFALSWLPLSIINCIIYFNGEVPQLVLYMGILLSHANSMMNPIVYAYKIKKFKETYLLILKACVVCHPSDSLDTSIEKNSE", "assay": "Displacement of [3H]NECA from human A3AR expressed in human HeLa cell membrane at 1 uM incubated for 180 mins by competitive binding assay relative to control", "format": "cell membranes"}, "[5]": {"target": "T4, Adenosine receptor A1 (Homo sapiens) (UniProt P30542)", "T4 sequence (whole entry)": "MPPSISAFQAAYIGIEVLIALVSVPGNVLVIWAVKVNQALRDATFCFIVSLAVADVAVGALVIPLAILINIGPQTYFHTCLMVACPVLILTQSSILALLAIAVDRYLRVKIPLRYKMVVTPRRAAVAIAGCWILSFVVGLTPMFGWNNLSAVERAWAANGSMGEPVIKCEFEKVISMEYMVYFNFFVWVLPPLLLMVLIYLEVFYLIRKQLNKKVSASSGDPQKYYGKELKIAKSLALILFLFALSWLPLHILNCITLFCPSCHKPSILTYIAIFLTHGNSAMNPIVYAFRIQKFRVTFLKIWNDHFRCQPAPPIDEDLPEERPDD", "assay": "Displacement of [3H]DPCPX from human A1AR expressed in CHO cell membrane at 1 uM incubated for 60 mins by competitive binding assay relative to control", "format": "cell membranes"}, "[6]": {"target": "Adenosine receptor A2a (Homo sapiens) (UniProt P29274)", "sequence (P29274 whole entry)": "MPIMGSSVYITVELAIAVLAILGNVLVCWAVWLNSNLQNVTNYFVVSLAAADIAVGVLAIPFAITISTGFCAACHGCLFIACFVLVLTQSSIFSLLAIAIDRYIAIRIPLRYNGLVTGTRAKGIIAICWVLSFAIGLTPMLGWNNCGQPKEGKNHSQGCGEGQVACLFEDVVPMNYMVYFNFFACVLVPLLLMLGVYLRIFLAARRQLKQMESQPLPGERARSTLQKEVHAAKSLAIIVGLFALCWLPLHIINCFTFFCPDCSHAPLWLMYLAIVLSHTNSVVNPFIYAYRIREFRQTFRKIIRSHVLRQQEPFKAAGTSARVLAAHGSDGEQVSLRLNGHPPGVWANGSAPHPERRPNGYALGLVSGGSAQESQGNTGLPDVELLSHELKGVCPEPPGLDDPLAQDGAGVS", "assay": "Displacement of [3H]DPCPX from human A2AAR expressed in human HeLa cell membrane at 1 uM incubated for 30 mins by competitive binding assay relative to control", "format": "cell membranes"}, "[7]": {"assay": "Immunostimulatory effect on anti-CD3/CD28 antibodies/IL-2-activated human PBMC cells assessed as reversal of ADO-mediated inhibition of cell proliferation at 15 uM incubated for 3 days by CFSE dye based flow cytometry (reference value: 3.55 %)", "format": "functional", "design": "scale not given: the % may be the effect or the level left", "details": "time 3 day"}, "[8]": {"target": "T1, Cytochrome P450 3A4", "description": "Inhibition of CYP3A4 (unknown origin) using DBF as substrate preincubated for 5 mins followed by substrate addition by fluorescence based assay"}}, "note": "The source made the active and inactive calls. The calls are words filed in the database; no cut-off is given here.", "data": [{"smiles": "CC1=C(C(=O)OC(C)C)C(c2ccco2)n2c(nc3ccccc32)N1", "note": "(centres undefined)", "values": [{"measurement": "solubility kinetic at 4 h", "setting": "[1]", "result": 25.2, "unit": "µM"}]}, {"smiles": "CC1=C(C(=O)OC(C)C)C(c2ccco2)n2c(nc3cc(Br)ccc32)N1", "note": "(racemic)", "values": [{"measurement": "IC50", "setting": "[2]", "result": "> 10", "unit": "µM"}, {"measurement": "Activity", "setting": "[3]", "result": "Active"}]}, {"smiles": "CCOC(=O)C1=C(C)Nc2nc3ccccc3n2C1c1cocn1", "note": "(centres undefined)", "values": [{"measurement": "Activity", "setting": "[4]", "result": 7, "unit": "%"}, {"measurement": "Activity", "setting": "[5]", "result": 5, "unit": "%"}]}, {"smiles": "CCCn1c(=O)[nH]c2[nH]c(-c3ccc(S(=O)(=O)C4CCC(c5ccc(Cl)cc5)CC4)cc3)nc2c1=O", "note": "(centres undefined)", "values": [{"measurement": "solubility kinetic at 4 h", "setting": "[1]", "result": 0.2, "unit": "µM"}]}, {"smiles": "CC1=C(C(=O)OC(C)C)C(c2cocn2)n2c(nc3ccccc32)N1", "note": "(centres undefined)", "values": [{"measurement": "Activity", "setting": "[6]", "result": 19, "unit": "%"}, {"measurement": "solubility kinetic at 4 h", "setting": "[1]", "result": 39.7, "unit": "µM"}, {"measurement": "Activity", "setting": "[4]", "result": 16, "unit": "%"}, {"measurement": "Activity", "setting": "[5]", "result": 7, "unit": "%"}]}, {"smiles": "CCOC(=O)C1=C(C)Nc2nc3cc(Br)ccc3n2C1c1ccoc1", "note": "(racemic)", "values": [{"measurement": "Activity", "setting": "[3]", "result": "Active"}]}, {"smiles": "CC1=C(C(=O)OC(C)C)C(c2ccoc2)n2c(nc3ccccc32)N1", "note": "(centres undefined)", "values": [{"measurement": "Activity", "setting": "[6]", "result": 23, "unit": "%"}, {"measurement": "solubility kinetic at 4 h", "setting": "[1]", "result": 26.1, "unit": "µM"}]}, {"smiles": "CC1=C(C(=O)OC(C)C)C(c2ccco2)n2c(nc3cc(Cl)ccc32)N1", "note": "(racemic)", "values": [{"measurement": "IC50", "setting": "[2]", "result": "> 10", "unit": "µM"}, {"measurement": "Activity", "setting": "[3]", "result": "Active"}, {"measurement": "Activity", "setting": "[7]", "result": 6.64, "unit": "%"}]}, {"smiles": "CCOC(=O)C1=C(C)Nc2nc3cc(Br)ccc3n2[C@@H]1c1ccoc1", "values": [{"measurement": "Activity", "setting": "[6]", "result": 12, "unit": "%"}]}, {"smiles": "CC1=C(C(=O)OC(C)C)C(c2ccco2)n2c(nc3cc(F)c(F)cc32)N1", "note": "(racemic)", "values": [{"measurement": "IC50", "setting": "[8]", "result": "> 10", "unit": "µM"}, {"measurement": "IC50", "setting": "[2]", "result": "> 10", "unit": "µM"}]}, {"smiles": "CC1=C(C(=O)OC(C)C)C(c2ccco2)n2c(nc3cc(F)ccc32)N1", "note": "(racemic)", "values": [{"measurement": "IC50", "setting": "[8]", "result": "> 10", "unit": "µM"}, {"measurement": "IC50", "setting": "[2]", "result": "> 10", "unit": "µM"}, {"measurement": "Activity", "setting": "[3]", "result": "Active"}]}, {"smiles": "CCOC(=O)C1=C(C)Nc2nc3cc(Br)ccc3n2[C@H]1c1ccoc1", "values": [{"measurement": "Activity", "setting": "[4]", "result": 10, "unit": "%"}]}, {"smiles": "CC1=C(C(=O)OC(C)C)[C@@H](c2ccco2)n2c(nc3cc(Br)ccc32)N1", "values": [{"measurement": "Activity", "setting": "[6]", "result": 14, "unit": "%"}]}]}
